# Where no end group is shown, it is not given here.
# Assays:
# keratinocytes = assay: Adhesion between cutaneous cells, MTT reading of adherent keratinocytes in 96 well micro-plates; type: cell-based; settings: after 3 hours of contact with the keratinocytes; compared with the other peptides tested
# Protocol: The study is performed in 96 well micro-plates on keratinocytes cultured in an incubator at 37° C. and 5% of CO2.
# The wells are pre-treated during 12 hours in a different way; four conditions are thus performed: • Condition A: negative control, containing no peptide; • Condition B: incubated with various peptides, made of 3 to 25 amino acids (from the extracellular matrix), with a concentration from 5 to 50 ppm; • Condition C: incubated with the peptide of sequence Arg-Asp-Phe-Thr-Lys-Ala-Thr-Asn-Ile-Arg-Leu-Arg-Phe-Leu-Arg (SEQ ID NO: 3) to a concentration of 5 ppm.
# After 3 hours of contact with the keratinocytes, the wells are completely filled with culture medium, hermetically closed, turned over and agitated on a three-dimensional agitator during 20 minutes. Then the plates are emptied and the medium remaining is aspired. 100 μl of MTT with 1 mg/ml per well is added and is left during 3 hours at 37° C. and 5% of CO2. The solution is finally withdrawn and 100 μl of DMSO is added. A reading of C is made at 560 nm against 630 nm.
# The results present the various Optical Density (O.D.) obtained according to the various conditions. The O.D. is proportional to the quantity of viable cells, that is to say those which adhered to the micro-plates.
# keratin = assay: Immunofluorescence study of keratin expression in ex vivo human skin samples; type: cell-based; settings: 48 hours
# Protocol: (§1) Human fibroblasts are plated in Labteks then cultured for one night. After rinsing with HBS buffer, a composition containing 1% of a solution at 100 ppm of the peptide SEQ ID NO: 5, or a control composition containing no peptide, is added. The cells are then incubated for 48 hours. After performing the elimination of the supernatants and rinsing the cultures, the cells are fixed with paraformaldehyde for 30 minutes at 4° C. then rinsed with PBS buffer.
# (§2) 200 μL of anti-fibronectin antibody or anti-collagen I, or anti-collagen III polyclonal antibody obtained in the rabbit (TEBU) are then added. Incubation lasts 30 minutes at room temperature. The supernatants are eliminated and the cells are rinsed with PBS. 200 μL of secondary antibody, coupled to a fluorescent marker (Alexa-fluor 488) are then added. After 30 minutes of incubation at room temperature, the supernatants are eliminated and the cells are rinsed with the PBS.
# (§3) The slides are then assembled and examined under epi-fluorescence microscope (Nikon Eclipse E600). The quantities of fibronectine and/or collagen of the type I and III, synthesized by the cells, are proportional to fluorescence intensity.
# A study by immunofluorescence technique, identical to that of Example 3, was performed on ex vivo human skin samples, with anti-keratin monoclonal antibody (Novocastra).
# type III collagen = assay: Immunofluorescence study of type III collagen expression in human fibroblasts; type: cell-based; settings: 1% of a solution at 100 ppm of peptide, 48 hours
# Protocol: (§4) The immunofluorescence is a semi-quantitative technique which makes it possible to appreciate the rate of each protein present in the cellular cytoplasm.
# as §1, §2, §3
# β1 integrin = assay: Immunofluorescence study of β1 integrin expression in HaCat human keratinocytes; type: cell-based; settings: 48 hours
# Protocol: as §1, §2, §3
# (§5) A study by immunofluorescence technique, identical to that of example 3, was performed on HaCat human keratinocytes, with anti-laminin-5 antibodies and/or β1 anti-integrin antibodies.
# type I collagen = assay: Immunofluorescence study of type I collagen expression in human fibroblasts; type: cell-based; settings: 1% of a solution at 100 ppm of peptide, 48 hours
# Protocol: as §4, §1, §2, §3
# laminin-5 = assay: Immunofluorescence study of laminin-5 expression in HaCat human keratinocytes; type: cell-based; settings: 48 hours
# Protocol: as §1, §2, §3, §5
# fibronectin = assay: Immunofluorescence study of fibronectin expression in human fibroblasts; type: cell-based; settings: 1% of a solution at 100 ppm of peptide, 48 hours
# Protocol: as §4, §1, §2, §3
# [1] = system: fibroblasts as well as human keratinocytes in culture; assay: Peptide applied to cells in culture, HPLC analysis of the culture medium; type: cell-based; settings: peptide applied to fibroblasts and human keratinocytes in culture, in a few hours
# Protocol: A test is performed by applying the peptide to fibroblasts as well as to human keratinocytes in culture.
# [2] = Stability of peptide in solution by HPLC (C18) at various temperatures; type: physicochemical; settings: 10^−4 M
# Protocol: Peptide SEQ ID NO: 3 Arg-Asp-Phe-Thr-Lys-Ala-Thr-Asn-Ile-Arg-Leu-Arg-Phe-Leu-Arg was analyzed with a concentration of 10^−4 M by HPLC on a C18 type column, and with a linear gradient water/TFA 0.1%-acetonitrile/TFA 0.1%.
# [3] = Stability of peptide in culture medium conditioned by human fibroblasts and keratinocytes (released enzymes of degradation); type: in vitro ADME; settings: after 24 hours in culture medium withdrawn from human fibroblasts and keratinocytes cultured 24 hours at 37° C.
# Protocol: Human fibroblasts and keratinocytes were cultured during 24 hours at 37° C. and to 5% of CO2. For this period, the cells will release numerous enzymes of degradation in the culture medium. Thereafter, the culture medium is withdrawn to be put in the presence of peptide.
substance,measurement,setting,value
DFTKATNIRLRFLR [SEQ ID NO: 11],cell adhesion,keratinocytes,very good cell adhesion
IRLRFLR [SEQ ID NO: 4],keratin expression (fluorescence intensity),keratin,increases
Ile-Arg-Leu-Arg-Phe-Leu-Arg-NH2 (IRLRFLR-NH2) [SEQ ID NO: 5],type III collagen synthesis (fluorescence intensity),type III collagen,increases
same,β1 integrin synthesis (fluorescence intensity),β1 integrin,increase
same,type I collagen synthesis (fluorescence intensity),type I collagen,increases
same,laminin-5 synthesis (fluorescence intensity),laminin-5,increase
same,fibronectin synthesis (fluorescence intensity),fibronectin,increases
"RDFTKATNIRLRFLR [SEQ ID NO: 3, Arg-Asp-Phe-Thr-Lys-Ala-Thr-Asn-Ile-Arg-Leu-Arg-Phe-Leu-Arg]",peptide concentration in the culture medium,[1],decreases quickly
same,degradation of the peptide,"[2]; after 24 hours at 25° C., 37° C. and 60° C.",no degradation
same,degradation of the peptide,[2]; after 8 days at 25° C.,does not present degradation
same,degradation of the peptide,[3],almost no degradation
